Test in all cases: NCI tumour cell line growth inhibition, 48 h
Experiment [1] concerns DLD-1 colon.
Experiment [2] concerns DMS 114 small cell lung.
Experiment [3] deals with DMS 273 small cell lung.
In experiment [4] the test system is HOP-18 NSCLC.
Experiment [5] has as its system KM20L2 colon.
For experiment [6], the system named is LXFL 529 NSCLC.
Experiment [7] concerns M19-MEL melanoma.
For experiment [8], the system named is RXF-631 renal.
Experiment [9] concerns XF 498 CNS.
Experiment [10] deals with SNB-78 CNS.

“And” between values parts separate entries of the source, which are not always exact repeats. Equal values may be shown once.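 Briefly, cells in 96-well plates were exposed to five compound concentrations for 48 h, and endpoints were estimated by linear interpolation. GI50 = concentration required for 50% inhibition of growth. TGI marks complete inhibition of growth.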

Regarding `Cc1nc2sccn2c1C(=O)NN`, the TGI in [1], in experiment [2], in experiment [3], in experiment [4], in experiment [5] and in experiment [6] was over 100 µM each time. In addition, the TGI in [7], in experiment [8] and in experiment [9] was over 100 µM in each case.
For `OC12c3ccccc3C1CCCCC2N1CCCC1` (stereo unspecified), the TGI in experiment [2], in experiment [3], in [4], in [5], in [6] and in [7] was over 100 µM throughout. Further, in [10], the TGI is over 100 µM.
On to `COc1ccc(CNc2cnc3cc(N)ccc3n2)cc1`, for which the TGI in experiment [2], in [3], in experiment [5], in [6], in [7] and in experiment [10] was over 100 µM throughout. The molecule also yielded a TGI in experiment [9] of over 100 µM.
On to `C=C(C)C12CC3CC(/C(=N/O)C(C1)/C3=N\O)[C@@]2(C)O` (stereo partly specified), for which the TGI in experiment [1], in [2], in [3], in experiment [5], in [6] and in [7] was over 100 µM throughout. The same molecule had a TGI in experiment [10] of over 100 µM.
With `COc1ccc(C(c2ccccc2)(c2ccc(OC)cc2)N2C(=O)NC3C(CCCCC(=O)NCCCCCCOP(OCCC#N)N(C(C)C)C(C)C)SCC32)cc1` (stereo unspecified), the TGI was 29.4 µM in experiment [1]; 36.8 µM in experiment [2]; 25.3 µM in experiment [3]; 24.4 µM in [4]; 30.8 µM in [5]; 25.2 µM in [6]. Moreover, the TGI in experiment [7] is 33.1 µM; in [8], 17.7 µM; in experiment [10] it was 34.6 µM; in experiment [9] it was 30.8 µM.
Regarding `CC(C)(O)C(O)COc1c2c(cc3oc(=O)ccc13)OCO2` (stereo unspecified), the TGI in [1], in experiment [2], in experiment [3], in experiment [4], in experiment [5] and in experiment [6] was over 100 µM each time. For the same molecule, the TGI in experiment [7] and in [9] was over 100 µM each time.
Consider `CSc1nc(-c2ccc(Cl)cc2)c(C#N)c(=O)n1C1OC(COC(C)=O)C(OC(C)=O)C(OC(C)=O)C1OC(C)=O` (stereo unspecified), for which the TGI in experiment [1], in experiment [2], in experiment [3], in [4], in experiment [5] and in experiment [6] was over 100 µM in each case. Moreover, the TGI was over 100 µM in experiment [7]; 39.6 µM and > 100 µM in experiment [10]; over 100 µM in experiment [9]. The GI50 was 24.6 µM and > 100 µM in experiment [2]; 35 µM and > 100 µM in [5]; 26 µM and > 100 µM in experiment [6]; 34.3 µM and > 100 µM in [7]; 12.4 µM and > 100 µM in [10].
`COc1cccc2c1c1ccc3c(c1n2C)C(=O)C=CC3=O`: the TGI was 31.2 µM in [1]; 43.4 µM in experiment [2]; 32.2 µM in experiment [3]; 29 µM in experiment [4]; over 100 µM in [5]; 24.4 µM in experiment [6]. The TGI came to 2.52 µM in experiment [7], 42.5 µM in [10] and 29.4 µM in experiment [9].
